From paper PMC5840262, “Design, Synthesis and Evaluation of Branched RRWQWR-Based Peptides as Antibacterial Agents Against Clinically Relevant Gram-Positive and Gram-Negative Pathogens” (Frontiers in Microbiology, 2018) come the findings set out here.

Series [1] deals with clinical isolates of Gram-negative bacteria (Klebsiella pneumoniae, Pseudomonas aeruginosa). As to the kind of experiment: Therapeutic index, Gram-negative clinical isolates. The note with it: for Fold (GM peptide / GM tetrameric peptide): Gram-negative clinical isolates. The text has this: (§1) We determined the therapeutic index of each peptide, which we defined as the ratio of Maximum Hemolytic Activity (Hmax) to MIC50 (Hmax/MIC50).
(§2) The results are shown in Table 7 (Gram-positive) and Table 8 (Gram-negative). Regarding the Gram-positive bacteria, the palindromic, dimeric and tetrameric peptides were active chiefly against S. aureus. This trend was consistent with results of the experiments on the ATCC strains, in which these peptides were only active against the sensitive strain of the […] bacteria.

For series [2], the system named is Pseudomonas aeruginosa ATCC 27853 (resistant). Type of series: cell-based. The procedure: (§3) We screened all five peptides against the ATCC reference strains and the clinical isolates according to Method M7-A7 of the National Committee for Clinical Laboratory Standards (CLSI, [2007]). The MIC50 and MBC values were determined using a broth microdilution and growth inhibition method previously reported by Leon-Calvijo et al. ([2015]), with some modifications (Wiegand et al., [2008]). Briefly, the MIC50 experiments comprised a liquid-inhibition growth assay in a sterile, untreated, 96-well flat-bottom tissue culture plate. The bacteria were cultured overnight n Mueller Hinton agar; three colonies were transferred to 8 mL of Mueller Hilton broth and incubated at 37°C until the mid-exponential phase of growth. The turbidity of the cultures was measured and adjusted spectrophotometrically to a McFarland standard of 0.5, and then diluted to a final concentration of 5 × 10^7 colony forming units (CFU) per well. Stock solutions (2,000 μM) of each test peptide were serially diluted to final concentrations (per well) of 200, 100, 50, 25, 12.5, and 6.25 μM. Each concentration was evaluated in duplicate and each assay was performed in triplicate.
(§4) Wells containing Mueller Hilton broth with bacterial inoculum only served as bacterial-growth controls. Additional controls included Mueller Hilton broth alone (as blank) and Mueller Hilton broth with ciprofloxacin (2 μg/mL; as positive control). The microplate was incubated for 24 h at 37°C, and growth inhibition was measured by monitoring the optical density at 620 nm (OD620). The MIC50 was defined as the peptide concentration at which bacterial growth was inhibited by 50%.
(§5) To determine the MBC, an aliquot from each well of the MIC50 assay was spread onto Mueller Hilton agar. After 18 h at 37°C, the concentration that inhibited bacterial growth was determined. Each of these tests was performed four times. MBC was defined as the lowest concentration of peptide at which the number of bacteria was reduced by 99.9% in vitro (European Committee for Antimicrobial Susceptibility Testing, [2000]).

The test system of series [3] is Enterococcus faecalis ATCC 29212 (sensitive). Format: cell-based. The note with it: for Bacterial viability (lowest value observed): untreated control = 100%, Figure 2A. The procedure: as §3, §4, §5
The subject of series [4] is Pseudomonas aeruginosa ATCC 10145 (sensitive). Format: cell-based. The procedure: as §3, §4, §5
In series [5] the test system is Enterococcus faecalis ATCC 51575 (resistant). Format: cell-based. The note with it: for Bacterial viability (lowest value observed): untreated control = 100%, Figure 2B. The procedure:
as §3, §4, §5

Series [6] deals with human erythrocytes. As to the kind of experiment: Hemolytic activity. Type of series: cell-based. The procedure:
Human erythrocytes collected from the blood samples of healthy humans were harvested by centrifugation for 7 min at 162 × g and washed three times in phosphate-buffered saline (PBS). The erythrocytes (2% hematocrit in PBS) were incubated with peptide molecules at several concentrations (6.25, 12.5, 25, 50, and 100 μM) for 2 h at 37°C. PBS was used as negative control for hemolysis, and sterile distilled water was used as positive control (100% hemolysis). The plate was subsequently centrifuged at 1,459 × g for 10 min at 4°C. Aliquots of the supernatant from each well (75 μL) were carefully transferred to a new sterile 96-well plate, and hemolytic activity was evaluated by measuring the OD492 using an Asys Expert Plus Microplate reader. The experiments were performed in duplicate, and hemolytic activity was calculated for each peptide.

Series [7] deals with clinical isolates of Gram-positive bacteria (Enteroccocus faecium, Staphylococcus aureus). As to the kind of experiment: Therapeutic index, Gram-positive clinical isolates. Conditions: for Fold (GM peptide / GM tetrameric peptide): Gram-positive clinical isolates.
Source text: as §1, §2

Series [8] has as its system Gram-negative ATCC strains (K. pneumoniae 13883 and 700603, P. aeruginosa 10145 and 27853). The note with it: for Fold (GM peptide / GM tetrameric peptide): Gram-negative ATCC strains.
Source text: as §1
The therapeutic index (TI) is a ratio of the toxic dose of a substance to its therapeutically-active dose and can be calculated different ways (e.g., LD50/ED50). Here, we calculated a TI value for each peptide against all the Gram-positive or the Gram-negative ATCC strains, by dividing its Hmax by its MIC50 for the given group of strains. […] Additionally, to make our quantitative analysis more robust [geometric mean (Khachatryan et al., [2017]) and fold values], we have included MIC50 values for these peptides against S. aureus and K. pneumoniae that we previously obtained using the same assay, the M7-A7 method of the National Committee for Clinical Laboratory Standards (Leon-Calvijo et al., [2015]).

Series [9] relates to Enterococcus faecium clinical isolate 1,040. Format: cell-based. The procedure: (§6) For the clinical isolates, we used 20 different isolates from the Public Health Reference Laboratory collection of the Secretaría de Salud del Distrito (SdSD; Bogotá, Colombia). The samples were collected from June to December 2016. For each isolate, the patient parameters (age, gender and location) and the culture site were recorded for epidemiologic monitoring (Table 1). All isolates had been previously tested for antibiotic sensitivity at the Public Health Microbiology Laboratory using either the Phoenix™ system (Gram-positive) or the VITEK 2 system (Gram-negative).
as §3, §4, §5

Series [10] has as its system Staphylococcus aureus clinical isolate 52,013. Format: cell-based. The procedure:
as §6, §3, §4, §5

Series [11] has as its system Pseudomonas aeruginosa clinical isolate 48,220. Format: cell-based. The procedure:
as §6, §3, §4, §5

[12] abbreviates: P. aeruginosa ATCC 27853 resistant, broth microdilution, 24 h 37°C, OD620, 50% growth inhibition.
[13] abbreviates: P. aeruginosa ATCC 27853 resistant, plated on Mueller Hinton agar, 18 h 37°C, 99.9% reduction.
Where [14] appears, read: E. faecalis ATCC 29212 sensitive, aliquots of MIC50 wells on Mueller Hinton agar, 18 h 37°C, 99.9% reduction.
Setting [15] is: E. faecalis ATCC 29212 sensitive, broth microdilution, Mueller Hinton broth, 24 h 37°C, OD620, concentration inhibiting growth by 50%.
Where [16] appears, read: P. aeruginosa ATCC 10145 sensitive, broth microdilution, 24 h 37°C, OD620, 50% growth inhibition.
[17] abbreviates: P. aeruginosa ATCC 10145 sensitive, plated on Mueller Hinton agar, 18 h 37°C, 99.9% reduction.
Where [18] appears, read: E. faecalis ATCC 51575 resistant, broth microdilution, 24 h 37°C, OD620, 50% growth inhibition.
Setting [19] is: E. faecalis ATCC 51575 resistant, plated on Mueller Hinton agar, 18 h 37°C, 99.9% reduction.
Where [20] appears, read: E. faecium isolate 1,040, broth microdilution, 24 h 37°C, OD620, 50% growth inhibition.
[21] abbreviates: E. faecium isolate 1,040, plated on agar 18 h 37°C, 99.9% reduction.
The mark [22] stands for this setting: S. aureus isolate 52,013, broth microdilution, 24 h 37°C, OD620, 50% growth inhibition.
[23] abbreviates: S. aureus isolate 52,013, plated on agar 18 h 37°C, 99.9% reduction.
[24] abbreviates: P. aeruginosa isolate 48,220, broth microdilution, 24 h 37°C, OD620, 50% growth inhibition.
Setting [25] is: P. aeruginosa isolate 48,220, plated on agar 18 h 37°C, 99.9% reduction.

≈ marks a conversion by molar mass, not a printed value. Where “and” joins values, the source holds several entries; their conditions need not be identical. Equal entries are not always repeated. Where two headings read alike, the source gives them in different places. Bridge positions count the residues as written; N and C are the ends. Square brackets hold non-standard residues; d marks the D form. Ends that are not written are not given here. Peptide text beside a SMILES is read from it. I, II: the chains in the order shown. Ahx = NCCCCCC(=O)O

For `N=C(N)NCCC[C@H](NC(=O)[C@H](Cc1c[nH]c2ccccc12)NC(=O)[C@H](CCC(N)=O)NC(=O)[C@H](Cc1c[nH]c2ccccc12)NC(=O)[C@H](CCCNC(=N)N)NC(=O)[C@@H](N)CCCNC(=N)N)C(=O)NCCCC[C@H](NC(=O)[C@H](CCCNC(=N)N)NC(=O)[C@H](Cc1c[nH]c2ccccc12)NC(=O)[C@H](CCC(N)=O)NC(=O)[C@H](Cc1c[nH]c2ccccc12)NC(=O)[C@H](CCCNC(=N)N)NC(=O)[C@@H](N)CCCNC(=N)N)C(=O)NCCCCCC(N)=O` [LfcinB (20–25)2] (I: H-RRWQWRK[Ahx]-NH2 / II: H-RRWQWR; amide I:7-II:C; N-terminus assumed), the Gm, geometric mean of MIC50 values in [1] turned out to be 16.8 µM; in series [7], 16.4; in [8], 16.1. Besides, the “Fold (GM peptide / GM tetrameric peptide)” value was found to be 1.7 in [1], 2.4 in series [7] and 1.2 in series [8]. For the same molecule, the MBC in series [2] (ATCC 27853, 18 h) was 200.0 µM (≈ 439 µg/mL); in series [3] (ATCC 29212, 18 h) it was 100.0 µM (≈ 220 µg/mL); in series [4] (ATCC 10145, 18 h), 100.0 µM (≈ 220 µg/mL); in [5] (ATCC 51575, 18 h) it was above 200.0 µM; in series [9] (clinical isolate 1,040, 18 h) it was above 100 µM; in series [10] (clinical isolate 52,013, 18 h), 25.0 µM (≈ 54.9 µg/mL). In addition, in [11] (clinical isolate 48,220, 18 h), the MBC was found to be 50.0 µM (≈ 110 µg/mL). In addition, the MIC50 in [2] (ATCC 27853, 24 h) was 34.8 µM (≈ 76.4 µg/mL); in series [3] (ATCC 29212, 24 h), 13.1 µM (≈ 28.8 µg/mL); in series [4] (ATCC 10145, 24 h), 29.1 µM (≈ 63.9 µg/mL); in series [5] (ATCC 51575, 24 h), above 200.0 µM; in series [9] (clinical isolate 1,040, 24 h), above 100 µM; in [10] (clinical isolate 52,013, 24 h), 12.6 µM (≈ 27.7 µg/mL). For the same molecule, in series [11] (clinical isolate 48,220, 24 h), the MIC50 is 50.0 µM (≈ 110 µg/mL). The “MBC relative to MBC of the tetrameric peptide (× MBCtet)” value in series [2] (resistant P. aeruginosa strain), in series [3] (sensitive E. faecalis strain) and in [4] (sensitive P. aeruginosa strain) was 4 × MBCtet in each case. In addition, the results for the “Bacterial viability (lowest value observed)” value in [3] (25 μM) and in series [5] (25.0 μM) were 40.9% and 65.3%, respectively. The “H50, concentration of peptide leading to 50% hemolysis” value in [6] (red cells of human, 2 h) was above 100 µM.

Turning to “(RRWQWR)4K2Ahx2C2 (disulfide) [LfcinB (20–25)4, branched tetrameric peptide (RRWQWR)4K2Ahx2C2, two dimers linked by a cysteine disulfide bridge]”, the “Fold (GM peptide / GM tetrameric peptide)” value in series [1], in series [7] and in series [8] was 1.0 in each case. Further, the Gm, geometric mean of MIC50 values in [1] (Gram-negative clinical isolates (K. pneumoniae, P. aeruginosa) with a printed MIC50) was found to be 9.7 µM; in [7] (Gram-positive clinical isolates (E. faecium, S. aureus) with a printed MIC50), 7.0; in series [8] (Gram-negative ATCC strains 13883, 700603, 10145, 27853, in µM) it was 13.1. Moreover, the MIC50 in [2] (setting [12]) is 21.7 µM; in series [3] (setting [15]), 3.1 µM; in [4] (setting [16]), 18.1 µM; in series [5] (setting [18]) it was above 200.0 µM; in series [9] (setting [20]) it was above 100 µM; in series [10] (setting [22]) it was 6.7 µM. In [11] (setting [24]), this molecule showed an MIC50 of 12.6 µM. Besides, the minimal bactericidal concentration (MBC) in [2] (setting [13]) was 50.0 µM; in series [3] (setting [14]) it was 25.0 µM; in series [4] (setting [17]) it was 50.0 µM; in series [5] (setting [19]), above 200.0 µM; in series [9] (setting [21]), above 100 µM; in series [10] (setting [23]), 12.5 µM. In addition, the MBC in series [11] (setting [25]) came out at 25.0 µM. Besides, the entries for the “Bacterial viability (lowest value observed)” value in series [3] (6.2 μM) and in series [5] (12.5 μM) were 48.9% and 62.4%, respectively. Also, the “Hmax relative to that of the dimer” value in series [6] is recorded as 8 x.

On to “RRWQWR-NH2 [LfcinB (20–25), reference compound]”, for which the MIC50 in series [2] (setting [12]) was above 200.0 µM; in [3] (setting [15]), above 200.0 µM; in series [4] (setting [16]), above 200.0 µM; in [5] (setting [18]), 198.0 µM; in [9] (setting [20]), above 100 µM; in series [10] (setting [22]), 5.1 µM. This molecule also showed an MIC50 in [11] (setting [24]) above 100 µM. In addition, the minimum bactericidal concentration (MBC) in series [2] (setting [13]) was above 200.0 µM; in series [3] (setting [14]), above 200.0 µM; in series [4] (setting [17]) it was above 200.0 µM; in [5] (setting [19]), above 200.0 µM; in [9] (setting [21]), above 100 µM; in [10] (setting [23]), above 100 µM. The MBC in [11] (setting [25]) was above 100 µM. In series [6] (human red blood cells, 2% hematocrit in PBS, 2 h 37°C, OD492, peptide 6.25-100 μM, concentration of the maximum in the column beside, duplicate), the “Hmax, maximum hemolytic activity” value was 7.1%. Moreover, in [6] (human red blood cells, 2 h 37°C, highest concentration tested 100 μM), the “H50, concentration of peptide leading to 50% hemolysis” value is above 100 µM. Moreover, in series [6] (human red blood cells, 2 h 37°C, used as MHC in the therapeutic index), the “Peptide concentration corresponding to Hmax” value is 25 µM and 25.0 µM.
